Data taken from US20210395327A1, “Growth Hormone-Releasing Hormone Antagonists and Uses Thereof” (United States Government As Represented By The Department …, priority 2019, published 2021).
“Also recorded” adds a separate entry of the source. Non-standard residues stand in square brackets, D forms with d. Residues, ends and D or L forms follow the SMILES beside them. *: point of attachment. Phe(F5) = N[C@@H](Cc1c(F)c(F)c(F)c(F)c1F)C(=O)O; hArg = N=C(N)NCCCC[C@H](N)C(=O)O; 12Ado = NCCCCCCCCCCCC(=O)O; Nle = CCCC[C@H](N)C(=O)O; Orn = NCCC[C@H](N)C(=O)O; Abu = CC[C@H](N)C(=O)O; PhAc = O=C(Cc1ccccc1)*

Tests used:
[1] = tested on: cellular levels of oxidant stress; details: Barbutis and Schally 2008; cited from earlier work
[2] = tested on: PAK1-STAT3/NF-κB in gastric cancer cells; details: Gan et al. 2016; cited from earlier work
[3] = tested on: mouse lung fibroblasts (Mlg 2908); experiment: Annexin V-propidium iodide assay of lung fibroblasts; type: cell-based; details: 24 hours, annexin-V/PI
Experimental: (§1) Lung fibroblasts. Newborn mouse lung fibroblasts (Mlg 2908) were obtained from the American Type Culture Collection, Manassas, Va. and cultured in Eagle's minimal essential medium. Cells were grown in 6-well plates before incubation with 1 or 5 μM MIA-602 or vehicle, RNA isolation, and oxygen consumption measurements.
Annexin V-propidium iodide assay. Apoptosis and necrosis were assessed with annexin-V/propidium iodide staining (Annexin V: FITC Assay Kit, Bio Rad, Hercules, Calif. 94547) of lung fibroblasts incubated in 0, 1 or 5 μM MIA-602 for 24 hours (Rieger A, Nelson K, Konowalchuk J, Barreda D. (2011). J Visualized Experiments 50:e2597). Culture medium and trypsinized cells were collected and centrifuged at 400×g for 5 minutes. The pellet was resuspended in 100 μL annexin-V/propidium iodide. The suspension was incubated at 37° C. for 20 minutes, then washed with PBS and resuspended in 500 μL PBS and fluorescence quantified by Beckman Coulter Life Sciences CytoFLEX benchtop flow cytometer (Beckman Coulter, Inc., Brea, Calif.).

[4] = tested on: bleomycin-induced lung infiltrates; experiment: Bleomycin mouse model, micro-CT of lungs; type: in vivo, C57Bl/6J mice; details: bleomycin plus MIA-602 vs vehicle
Experimental: Bleomycin and GHRH-R antagonist treatment. Mice were treated with 0.8 units of bleomycin (Bleomycin for Injection USP, Hospira, Lake Forest, Ill.) intraperitoneally (IP) on days 1, 3, 7, 10, 14 and 21 (Collins S, Chan-Li Y, Oh M, Vigeland C, Limjunyawong N, Mitzner W, Powell J D, Horton M R (2016). JCI Insight 1(4):1-13). Mice (randomly assigned) were simultaneously treated subcutaneously (sc) with MIA-602 (5 μg/day) or its vehicle (100 μL/day). MIA-602 was dissolved in DMSO (ACS grade; Sigma-Aldrich) and diluted 1:500 in normal saline for daily sc injection on days 0-21.
Tissue preparations. Mice were killed by CO2 inhalation before any treatment, or on days 14 or 28 for micro-CT scans of lungs and harvesting of lung tissue (Vande Vel de G, Poelmans J, De Langhe E, Hillen A, Vanoirbeek J, Himmelreich U, Lories R (2016). Dis Model Mech 9:91). The right mainstem bronchus was ligated and the right lung removed and frozen at −80° C. for hydroxyproline (HP) assays. The left lung was filled with 10% buffered formalin at […] cm H2O pressure, the bronchus ligated, and the lung fixed in formalin. Fixed lungs were embedded in wax and 5 μm sections stained with hematoxylin and eosin (H&E) or Masson's trichrome stain.
Micro-CT. Mice in each group were assessed by micro-CT scans (Bruker SkyScan 1176 Low Dose Micro-CT, Knotich, Belgium) of the lungs after CO2 inhalation. […]

[5] = tested on: RT4 urothelial cancer cells; experiment: In vitro cell viability, RT4; type: cell-based, human; details: antagonist 5 μM for 72 h, cell proliferation assay; MIA602 = 1
Experimental: The inhibitory effects of the various synthesized GHRH antagonists were tested in cell proliferation assays in various human cancer cell lines including stomach cancer (KATOIII, N87), colon cancer (HT-29), urothelial cancer (J82, RT4), pancreatic cancer (PANC-1, CFPAC-1), prostatic cancer (PC3), breast cancer (MX-1, HCC1806), ovarian cancer (SK-OV-3, OVCAR-3) and lung cancer (HCC827, H460).
Cell culture. Human cancer cell lines including pancreatic (PANC-1 and CFPAC-1), lung (HCC827 and H460), stomach (NCI-N87 and KATOIII), urothelial (J82, RT4), prostatic (PC3), breast (MX-1 and HCC 1806), colorectal (HT-29), and ovarian (SK-OV-3 and OVCAR-3) were obtained from the American Type Culture Collection (ATCC) and cultured at 37° C. in a humidified 95% air/5% CO2 atmosphere in the medium recommended by ATCC.
In vitro cell viability. Cell viability was analyzed as follows: cancer cells including pancreatic (PANC-1 and CFPAC-1), lung (HCC827 and H460), stomach (NCI-N87 and KATOIII), urothelial (J82, RT4), prostatic (PC3) and breast (MX-1 and HCC 1806), colorectal (HT-29) and ovarian (SK-OV-3 and OVCAR-3) were grown on 96 well plates to ˜60% confluence, the cells were starved for 24 h in culture medium containing 0.5% FBS. Cells were then treated with GHRH antagonists MIA602 AVR compounds at concentrations of 1, 2.5 or 5 μM, or vehicle (0.1% DMSO) in quintuplicates for 72 hours. The medium was replaced every 48 hours. Cell viability was measured using CellTiter 96 aqueous one solution kit (Promega). Inhibitory effects of tested AVR compounds in comparison to that of MIA602 are presented as inhibitory potency.
Inhibitory effects of selected AVR compounds in comparison to that of MIA602 are presented as inhibitory potency (e.g., percentage of inhibition). […] The cell lines tested including lung cancer HCC827 (FIG. 2A), pancreatic cancer CFPAC-1 (FIG. 2B), stomach cancer N87 (FIG. 2C), colon cancer HT-29 (FIG. 2D), breast cancers MX-1 and HCC1806 (FIGS. 2 E, F). […]

[6] = tested on: gene expression in normal mouse lung fibroblasts; experiment: RNAseq of cultured lung fibroblasts; type: cell-based; details: 1 and 5 μM MIA-602, not exposed to bleomycin
Experimental: as §1
RNA was extracted from cultured fibroblasts using a Direct-zol RNA MicroPrep kit (R2060; Zymo Research, Irvine, Calif.). Cells were washed with PBS and lysed in TRIreagent™, then purified using Direct-zol RNA columns. DNase I treatment was done in columns and RNA eluted in DNase/Rnase-free water.
RNAseq and Pathway analyses. At least 10 ng of total RNA was used as input for the KAPA RNA HyperPrep Kit with RiboErase (HMR) to create ribosomal RNA-depleted sequencing libraries, including sample indexing, to allow for multiplexing. Cluster generation and sequencing was done on the Illumina cBOT and HiSeq 3000 using reagents provided by Illumina, finally generating >32 million single-end 100 base reads per sample.

## CCCC[C@H](NC(=O)[C@@H](NC(=O)[C@H](CC(=O)O)NC(=O)[C@H](CCC(N)=O)NC(=O)[C@H](CC(C)C)NC(=O)[C@H](CC(C)C)NC(=O)[C@H](CCCN)NC(=O)[C@H](Cc1c[nH]cn1)NC(=O)[C@H](C)NC(=O)[C@H](CO)NC(=O)[C@H](CC(C)C)NC(=O)[C@H](CCC(N)=O)NC(=O)[C@H](CC)NC(=O)[C@H](CC(C)C)NC(=O)[C@@H](NC(=O)[C@H](CCCN)NC(=O)[C@H](Cc1c[nH]cn1)NC(=O)[C@H](Cc1ccc(OC)cc1)NC(=O)[C@H](CCCCNC(=N)N)NC(=O)[C@H](C)NC(=O)[C@@H](NC(=O)[C@H](Cc1c(F)c(F)c(F)c(F)c1F)NC(=O)[C@@H](NC(=O)[C@H](C)NC(=O)[C@H](CC(=O)O)NC(=O)[C@@H](CCCNC(=N)N)NC(=O)[C@H](Cc1ccc(O)cc1)NC(=O)CCCCCCCCCCCNC(=O)Cc1ccccc1)[C@@H](C)CC)[C@@H](C)O)C(C)C)[C@@H](C)CC)C(=O)N[C@H](CCCNC(=N)N)C(=O)N[C@@H](CCCCNC(=N)N)C(N)=O [MIA-602, PhAC-Ada, Tyr D-Arg, Asp, Ala, Ile, 5FPhe, Thr, Ala, Har, Tyr(Me), His, Orn, Val, Leu, Abu, Gin, Leu, Ser, Ala, His, Om, Leu, Leu, Gin, Asp, Ile; Nle, D-Arg, Har NH2, reference compound] ({PhAc-12Ado}-Y[dR]DAI[Phe(F5)]TA[hArg]Y(Me)H[Orn]VL[Abu]QLSAH[Orn]LLQDI[Nle][dR][hArg]-NH2)
[1]
  cellular levels of oxidant stress (in words): decreased
[2]
  signaling pathways in gastric cancer cells (in words): downregulates p21 activated kinase and STAT3 and NFκB; also recorded: inhibits signaling pathways, including PAK1-STAT3/NF-κB
[3]; 1 μM
  cytolytic cell death: 9.3±1.1%
[3]; 5 μM
  cytolytic cell death: 34.9±2.5%
[4]
  infiltrative densities in lungs, micro-CT (in words): less prominent infiltrative densities
[5]
  relative inhibitory potency in comparison to MIA-602, Urothelial RT4: 1
[6]
  fibroblast gene expression, RNA-seq (in words): significant downregulation of genes involved in collagen fibril organization, cell-matrix adhesion and elastic fiber assembly
